Read-outs that look alike come from different tables or passages of the source.
Molecular target: T1, P-glycoprotein (P-gp) (Homo sapiens, UniProt P08183)
T1 construct: The resistant CEM/vcr1000 line was obtained by stepwise selection in vincristine containing medium; endogenous in cells; host or cells: CCRF-CEM vcr1000 (CEM/vcr1000), a human T-lymphoblast line made multidrug resistant by vincristine selection
Test: Daunorubicin efflux inhibition in multidrug resistant CCRF-CEM vcr1000 cells
Format: cell-based
Conditions: for factor more active than corresponding unsubstituted analogs 6a and 6b: N-methylated L-valine analogues versus secondary amines
Experimental: Biological activity of target compounds 5a–22b was assessed using the daunorubicin efflux protocol as described previously. Briefly, multidrug resistant CCRF-CEM vcr 1,000 cells were incubated with daunorubicin and the decrease in mean cellular fluorescence in dependence of time was measured in presence of various concentrations of the modulator. IC50 values were calculated from the concentration–response curve of efflux V max /K m versus concentration of the modulator. Thus, the effect of different modulators on the transport rate is measured in a direct functional assay. Values are given in Table 1 and are the mean of at least three independently performed experiments. Generally, inter experimental variation was below 20 %.
The human T-lymphoblast cell line CCRF-CEM and the multidrug resistant CEM/vcr1000 cell line were provided by V. Gekeler (Byk Gulden, Konstanz, Germany). The resistant CEM/vcr1000 line was obtained by stepwise selection in vincristine containing medium. Cells were kept under standard culture conditions (RPMI1640 medium supplemented with 10% fetal calf serum). P-gp-expressing resistant cell line was cultured in presence of 1000 ng/mL vincristine. One week prior to the experiments cells were transferred into medium without selective agents or antibiotics. Briefly, cells were pelleted, the supernatant was removed by aspiration and cells were resuspended at a density of 1 x 10^6/ mL in PRMI1640 medium containing 3µmol/l daunomycin. Cell suspensions were incubated at 37°C for 30 min. After this time a steady state of daunorubicin accumulation was reached. Tubes were chilled on ice and cells were pelleted at 500 x g. Cells were washed once in RPMI1640 medium to remove extracellular daunorubicin. […] Generally, 8 serial dilutions were tested for each modulator. After 1, 2, 3 and 4 min aliquots of the incubation mixture were drawn and pipetted into 4 volumes of ice cold stop solution (RPMI1640 medium containing verapamil at a final concentration of 100 µM). Parental CCRF-CEM cells were used to correct for simple membrane diffusion, which was less than 3% of the efflux rates observed in resistant cells. Samples drawn at the respective time points were kept in an ice water bath and measured within one hour on a Becton Dickinson FACS Calibur (Becton Dickinson, Heidelberg, Germany) flow cytometer as described. Dose response curves were fitted to the data points using non-linear least squares and IC50 values were calculated as described by Chiba et al. […] A CV of below 20% was obtained in all determinations.

[1] = SM Table 2, logarithm of the measured IC50 (μM) of Table 1
[2] = inhibition of P-gp mediated daunorubicin efflux, CCRF-CEM vcr1000 cells, mean of at least three experiments, read-out: IC50 μM ± SD
[3] = SM Table 2, logarithm of the measured IC50 (μM) of Table 1, read-out: Exp. LogIC50 (converted)

T1 sequence (P08183 whole entry): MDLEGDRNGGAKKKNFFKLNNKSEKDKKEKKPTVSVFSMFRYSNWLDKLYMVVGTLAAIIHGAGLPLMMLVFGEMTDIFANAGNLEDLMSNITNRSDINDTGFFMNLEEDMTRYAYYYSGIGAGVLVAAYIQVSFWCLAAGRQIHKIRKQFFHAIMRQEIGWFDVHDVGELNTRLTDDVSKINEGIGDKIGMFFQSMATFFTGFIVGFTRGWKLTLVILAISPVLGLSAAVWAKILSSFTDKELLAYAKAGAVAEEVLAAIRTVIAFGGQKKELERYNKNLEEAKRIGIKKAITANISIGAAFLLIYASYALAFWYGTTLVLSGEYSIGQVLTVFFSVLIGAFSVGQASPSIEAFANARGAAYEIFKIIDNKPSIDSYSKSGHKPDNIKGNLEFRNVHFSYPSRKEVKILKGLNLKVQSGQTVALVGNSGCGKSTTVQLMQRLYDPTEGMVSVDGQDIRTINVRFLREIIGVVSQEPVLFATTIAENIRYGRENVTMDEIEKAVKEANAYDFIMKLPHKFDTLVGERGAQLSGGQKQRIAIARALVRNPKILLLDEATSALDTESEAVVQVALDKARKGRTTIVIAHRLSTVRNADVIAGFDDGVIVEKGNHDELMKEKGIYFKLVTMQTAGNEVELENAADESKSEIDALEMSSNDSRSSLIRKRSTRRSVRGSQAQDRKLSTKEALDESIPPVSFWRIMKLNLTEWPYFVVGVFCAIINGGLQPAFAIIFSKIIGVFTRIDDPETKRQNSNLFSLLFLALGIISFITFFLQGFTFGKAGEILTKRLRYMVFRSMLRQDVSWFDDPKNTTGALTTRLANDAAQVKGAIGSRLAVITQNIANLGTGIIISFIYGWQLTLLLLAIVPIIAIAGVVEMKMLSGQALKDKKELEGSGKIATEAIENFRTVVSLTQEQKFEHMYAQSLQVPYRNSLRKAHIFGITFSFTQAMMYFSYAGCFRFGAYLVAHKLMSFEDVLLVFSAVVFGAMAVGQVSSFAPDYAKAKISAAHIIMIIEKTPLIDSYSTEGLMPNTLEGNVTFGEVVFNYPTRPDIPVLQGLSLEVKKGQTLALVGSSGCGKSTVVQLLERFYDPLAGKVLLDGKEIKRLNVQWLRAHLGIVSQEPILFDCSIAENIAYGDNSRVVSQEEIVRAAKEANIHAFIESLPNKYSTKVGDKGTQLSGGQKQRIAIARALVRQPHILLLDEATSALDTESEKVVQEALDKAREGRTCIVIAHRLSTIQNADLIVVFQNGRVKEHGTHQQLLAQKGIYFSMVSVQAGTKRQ

Row | Compound | Exp. LogIC50 [1] | IC50 [2] [µM] | factor more active than corresponding unsubstituted analogs 6a and 6b | factor less active than diastereomeric 4aR,10bS analogue 12b (ratio of P-gp inhibitory potency (IC50), 12a versus 12b) | more active than diastereomer 14b (ratio of P-gp inhibitory potency (IC50), 14a versus 14b) | IC50 [3] [µM]
1 | C[C@H](N[C@@H]1c2cc(C#N)ccc2OC(C)(C)[C@H]1O)C(=O)OC(C)(C)C [5a] | -1.47 | 29.85 ± 0.01 | – | – | – | –
2 | C[C@H](N[C@H]1c2cc(C#N)ccc2OC(C)(C)[C@@H]1O)C(=O)OC(C)(C)C [5b] | -1.16 | 14.55 ± 0.05 | – | – | – | –
3 | CC(C)[C@H](N[C@@H]1c2cc(C#N)ccc2OC(C)(C)[C@H]1O)C(=O)OC(C)(C)C [6a] | -0.38 | 2.4 ± 0.03 | – | – | – | –
4 | CC(C)[C@H](N[C@H]1c2cc(C#N)ccc2OC(C)(C)[C@@H]1O)C(=O)OC(C)(C)C [6b] | -0.43 | 2.7 ± 0.02 | – | – | – | –
5 | CC(C)(C)OC(=O)[C@H](Cc1ccccc1)N[C@@H]1c2cc(C#N)ccc2OC(C)(C)[C@H]1O [7a] | 0.26 | 0.55 ± 0.02 | – | – | – | –
6 | CC(C)(C)OC(=O)[C@H](Cc1ccccc1)N[C@H]1c2cc(C#N)ccc2OC(C)(C)[C@@H]1O [7b] | 0.11 | 0.77 ± 0.04 | – | – | – | –
7 | C[C@@H](C(=O)OC(C)(C)C)N(C)[C@@H]1c2cc(C#N)ccc2OC(C)(C)[C@H]1O [8a] | -0.60 | 3.96 ± 0.06 | – | – | – | –
8 | C[C@@H](C(=O)OC(C)(C)C)N(C)[C@H]1c2cc(C#N)ccc2OC(C)(C)[C@@H]1O [8b] | -0.57 | 3.72 ± 0.03 | – | – | – | –
9 | CC(C)[C@@H](C(=O)OC(C)(C)C)N(C)[C@@H]1c2cc(C#N)ccc2OC(C)(C)[C@H]1O [9a] | 0.02 | 0.96 ± 0.06 | 2 | – | – | –
10 | CC(C)[C@@H](C(=O)OC(C)(C)C)N(C)[C@H]1c2cc(C#N)ccc2OC(C)(C)[C@@H]1O [9b] | -0.13 | 1.35 ± 0.003 | 2 | – | – | –
11 | CC(C)[C@@H](N[C@@H]1c2cc(C#N)ccc2OC(C)(C)[C@H]1O)C(=O)OC(C)(C)C [10a] | -0.66 | 4.62 ± 0.31 | – | – | – | –
12 | CC(C)[C@@H](N[C@H]1c2cc(C#N)ccc2OC(C)(C)[C@@H]1O)C(=O)OC(C)(C)C [10b] | -0.13 | 1.34 ± 0.08 | – | – | – | –
13 | CC(C)[C@H](C(=O)OC(C)(C)C)N(C)[C@@H]1c2cc(C#N)ccc2OC(C)(C)[C@H]1O [11a] | -0.004 | 1.01 ± 0.02 | – | – | – | –
14 | CC(C)[C@H](C(=O)OC(C)(C)C)N(C)[C@H]1c2cc(C#N)ccc2OC(C)(C)[C@@H]1O [11b] | 0.005 | 1 ± 0.05 | – | – | – | –
15 | C[C@@H]1N[C@@H]2c3cc(C#N)ccc3OC(C)(C)[C@H]2OC1=O [12a] | -3.09 | 1241.6 ± 0.04 | – | 15 | – | –
16 | C[C@@H]1N[C@H]2c3cc(C#N)ccc3OC(C)(C)[C@@H]2OC1=O [12b] | -1.88 | 76.89 ± 0.06 | – | – | – | –
17 | CC(C)[C@@H]1N[C@@H]2c3cc(C#N)ccc3OC(C)(C)[C@H]2OC1=O [13a] | -1.18 | 15.3 ± 0.32 | – | – | – | –
18 | CC(C)[C@@H]1N[C@H]2c3cc(C#N)ccc3OC(C)(C)[C@@H]2OC1=O [13b] | -1.77 | 59.3 ± 0.6 | – | – | – | –

Row | Compound | Exp. LogIC50 [1] | IC50 [2] [µM] | factor more active than corresponding unsubstituted analogs 6a and 6b | factor less active than diastereomeric 4aR,10bS analogue 12b (ratio of P-gp inhibitory potency (IC50), 12a versus 12b) | more active than diastereomer 14b (ratio of P-gp inhibitory potency (IC50), 14a versus 14b) | IC50 [3] [µM]
19 | CC1(C)Oc2ccc(C#N)cc2[C@H]2N[C@@H](Cc3ccccc3)C(=O)O[C@@H]21 [14a] | -0.42 | 2.68 ± 0.18 | – | – | two orders of magnitude more active | –
20 | CC1(C)Oc2ccc(C#N)cc2[C@@H]2N[C@@H](Cc3ccccc3)C(=O)O[C@H]21 [14b] | -2.41 | 259.78 ± 0.06 | – | – | – | –
21 | C[C@H]1C(=O)O[C@H]2[C@@H](c3cc(C#N)ccc3OC2(C)C)N1C [15a] | -1.68 | 47.8 ± 0.91 | – | – | – | –
22 | C[C@H]1C(=O)O[C@@H]2[C@H](c3cc(C#N)ccc3OC2(C)C)N1C [15b] | -1.46 | 28.93 ± 0.15 | – | – | – | –
23 | CC(C)[C@H]1C(=O)O[C@H]2[C@@H](c3cc(C#N)ccc3OC2(C)C)N1C [16a] | – | 47.51 ± 0.4 | – | – | – | 47.9
24 | CC(C)[C@H]1C(=O)O[C@@H]2[C@H](c3cc(C#N)ccc3OC2(C)C)N1C [16b] | – | 16.7 ± 0.2 | – | – | – | 16.6
25 | CC(C)[C@H]1N[C@H]2c3cc(C#N)ccc3OC(C)(C)[C@@H]2OC1=O [17b] | – | 9.63 ± 0.08 | – | – | – | 9.55
26 | CC(C)[C@@H]1C(=O)O[C@H]2[C@@H](c3cc(C#N)ccc3OC2(C)C)N1C [18a] | – | 79.27 ± 0.05 | – | – | – | 77.6
27 | CC(C)[C@@H]1C(=O)O[C@@H]2[C@H](c3cc(C#N)ccc3OC2(C)C)N1C [18b] | – | 27.84 ± 0.02 | – | – | – | 27.5
28 | CC(C)[C@@H](CO)N[C@@H]1c2cc(C#N)ccc2OC(C)(C)[C@H]1O [19a] | -1.73 | 54.05 ± 0.31 | – | – | – | –
29 | CC(C)[C@@H](CO)N[C@H]1c2cc(C#N)ccc2OC(C)(C)[C@@H]1O [19b] | -2.01 | 102.6 ± 0.15 | – | – | – | –
30 | CC(C)[C@@H](CO)N(C)[C@@H]1c2cc(C#N)ccc2OC(C)(C)[C@H]1O [20a] | -0.74 | 5.46 ± 0.24 | – | – | – | –
31 | CC(C)[C@@H](CO)N(C)[C@H]1c2cc(C#N)ccc2OC(C)(C)[C@@H]1O [20b] | -0.83 | 6.84 ± 0.15 | – | – | – | –
32 | CC(C)[C@H]1CO[C@H]2[C@H](N1)c1cc(C#N)ccc1OC2(C)C [21a, (2S,4aS,10bR)-2-isopropyl-5,5-dimethyl-1,4a,5,10b-tetrahydro-3H [1]benzopyrano[3,4-b][1,4]oxazine-9-carbonitril] | – | 48.8 ± 0.09 | – | – | – | 49
33 | CC(C)[C@H]1CO[C@@H]2[C@@H](N1)c1cc(C#N)ccc1OC2(C)C [21b] | – | 44 ± 0.03 | – | – | – | 43.7
34 | CC(C)[C@@H](CCl)N(C)[C@@H]1c2cc(C#N)ccc2OC(C)(C)[C@H]1O [22a] | -1.55 | 35.22 ± 0.02 | – | – | – | –
35 | CC(C)[C@@H](CCl)N(C)[C@H]1c2cc(C#N)ccc2OC(C)(C)[C@@H]1O [22b] | -1.65 | 45.17 ± 0.05 | – | – | – | –

— paper PMC3589648, “2D- and 3D-QSAR studies of a series of benzopyranes and benzopyrano[3,4b][1,4]-oxazines as inhibitors of the multidrug transporter P-glycoprotein” (Journal of Computer-Aided Molecular Design, 2013)
